From PubChem BioAssay (NCI)
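Growth conditions: 96-well plates. Treatment: test compound, 48 hours, 5 concentrations. Analysis: linear interpolation between bracketing concentrations; unreached endpoints set to highest concentration. TGI: total growth inhibition.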

How the values were obtained:
Assay in all cases: inhibition of tumour cell growth, NCI panel, 48 h
[1] = system: SF-539 CNS
[2] = system: COLO 205 colon
[3] = system: UO-31 renal
[4] = system: OVCAR-8 ovarian
[5] = system: UACC-62 melanoma
[6] = system: MDA-MB-435
[7] = system: SNB-75 CNS
[8] = system: KM12 colon
[9] = system: SR leukemia
[10] = system: MDA-N

COc1cc(C2c3cc4c(cc3OC(N3CCOCC3)C2C)OCO4)cc(OC)c1O (stereo not drawn)
TGI [1]: 22 µM
TGI [2]: 41.9 µM
TGI [3]: > 66.4 µM
TGI [4]: > 56.7 µM
TGI [5]: > 100 µM
TGI [6]: 6.27 µM
TGI [7]: 7.64 µM
TGI [8]: > 100 µM
TGI [9]: > 35.1 µM

Cc1cc2ccccc2c[n+]1CC(=O)CC([O-])(C(F)(F)F)C(F)(F)F
TGI [1]: > 100 µM
TGI [2]: > 100 µM
TGI [3]: > 100 µM
TGI [4]: > 100 µM
TGI [5]: > 100 µM
TGI [6]: > 100 µM
TGI [7]: > 100 µM
TGI [10]: > 100 µM
TGI [9]: > 100 µM

CCOC(=O)/C=C(/C(=O)OCC)n1cc(C)c(=O)n(Cc2cnnn2CCCCOC(C)=O)c1=O
TGI [1]: 32.9 µM
TGI [2]: 56.7 µM
TGI [3]: 36.6 µM
TGI [4]: 55.4 µM
TGI [5]: 57.7 µM
TGI [6]: 87.2 µM
TGI [7]: > 100 µM
TGI [8]: > 100 µM
TGI [10]: > 100 µM

CC(NCCS(=O)(=O)O)C(=O)O (stereo not drawn)
TGI [1]: > 100 µM
TGI [2]: > 100 µM
TGI [3]: > 100 µM
TGI [4]: > 100 µM
TGI [5]: > 100 µM
TGI [7]: > 100 µM
TGI [8]: > 100 µM

CC(C)n1c(=O)c2nn3c(=O)n(C(C)C)c(=O)c3nn2c1=O
TGI [1]: > 100 µM
TGI [2]: > 100 µM
TGI [4]: > 100 µM
TGI [5]: > 100 µM
TGI [6]: > 100 µM
TGI [8]: > 100 µM
TGI [10]: > 100 µM
TGI [9]: > 100 µM

CO[P@]1(=O)O[C@@H](c2ccccc2)[C@H](O)[C@]1(O)c1ccccc1
TGI [1]: > 100 µM
TGI [2]: > 100 µM
TGI [3]: > 100 µM
TGI [4]: > 100 µM
TGI [5]: > 100 µM
TGI [6]: > 100 µM
TGI [7]: > 100 µM
TGI [8]: > 100 µM
TGI [10]: > 100 µM

S=C1CC(c2ccc(Cl)cc2)Sc2ccccc2N1 (stereo not drawn)
TGI [2]: > 100 µM
TGI [3]: > 100 µM
TGI [4]: > 100 µM
TGI [5]: > 100 µM
TGI [6]: > 100 µM
TGI [7]: > 10 µM
TGI [8]: > 100 µM
TGI [10]: > 100 µM
TGI [9]: > 100 µM

O=C1CC(c2cccc(Cl)c2)n2cccc21 (stereo not drawn)
TGI [1]: > 100 µM
TGI [2]: > 100 µM
TGI [3]: > 100 µM
TGI [4]: > 100 µM
TGI [5]: > 100 µM
TGI [6]: > 100 µM
TGI [7]: > 100 µM
TGI [8]: > 100 µM
TGI [9]: > 100 µM

Clc1ccc(OCc2nnc(CCCCCCCCc3nnc(COc4ccc(Cl)cc4Cl)o3)o2)c(Cl)c1
TGI [2]: > 100 µM
TGI [3]: > 100 µM
TGI [5]: > 100 µM
TGI [6]: > 100 µM
TGI [7]: > 100 µM
TGI [8]: > 100 µM
TGI [10]: > 100 µM

CCCCNC(=S)Nc1nc(C(=O)NNS(=O)(=O)c2ccccc2)cs1
TGI [1]: > 100 µM
TGI [2]: 38.6 µM
TGI [3]: 85.3 µM
TGI [4]: > 100 µM
TGI [5]: 59.2 µM
TGI [6]: 48.4 µM
TGI [7]: 76.6 µM
TGI [8]: > 100 µM
TGI [9]: > 100 µM

COC(=O)c1c(O)ccc2c1c1c(n2C)C(=O)c2ccccc2C1=O
TGI [1]: 65.1 µM
TGI [2]: > 100 µM
TGI [3]: > 100 µM
TGI [4]: > 100 µM
TGI [6]: > 100 µM
TGI [7]: 15 µM
TGI [8]: > 100 µM
TGI [9]: > 100 µM
